The assay addresses T1, cloned human glucagon receptor (Homo sapiens, UniProt P47871).
T1 construct: expressed in transfected cells; host or cells: 293 HEK cells, hygromycin-selected; crude plasma membranes
The assay is described as follows: Glucagon Receptor (hGlucR) Binding Assay (SPA, I-125 glucagon competition). The text has this:
The second supernate is combined with the first supernate.
The specific activity is 2200 Ci/mmol.

SMILES strings stand for the structures.

T1 sequence (P47871 26-477): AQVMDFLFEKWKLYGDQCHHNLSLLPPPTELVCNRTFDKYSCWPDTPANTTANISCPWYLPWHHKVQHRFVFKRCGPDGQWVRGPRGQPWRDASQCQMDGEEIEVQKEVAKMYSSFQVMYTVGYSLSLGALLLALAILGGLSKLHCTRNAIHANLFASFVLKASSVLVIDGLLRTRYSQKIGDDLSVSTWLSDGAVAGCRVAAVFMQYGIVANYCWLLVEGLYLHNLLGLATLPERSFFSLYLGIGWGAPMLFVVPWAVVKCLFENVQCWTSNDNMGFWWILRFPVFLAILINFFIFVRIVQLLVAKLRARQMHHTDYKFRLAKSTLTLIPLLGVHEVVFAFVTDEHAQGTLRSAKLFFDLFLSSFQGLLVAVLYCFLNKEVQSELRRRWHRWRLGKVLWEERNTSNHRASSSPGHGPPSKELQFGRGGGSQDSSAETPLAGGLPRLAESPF

`CC(C)CC(Cc1ccc(-c2ccc(C(C)(C)C)cc2)cc1)c1ccc(C(=O)NCCC(=O)O)cc1` (centres unmarked) returned a Ki of 266 nM.
In the case of `CCCCCCC(Cc1ccc(-c2ccc(C(F)(F)F)cc2)cc1)c1ccc(C(=O)NCCC(=O)O)cc1` (centres unmarked), affinity was put at a Ki of 232 nM.

For orientation: Ki means a measure of affinity in units of concentration, obtained from inhibition or displacement. Low readings indicate tighter binding, high ones weaker binding.
